Test system: rabbit skeletal muscle myofibril preparations (approximately 90% fast fibers)
Test: Activation of fast skeletal muscle fibers: enzymatic activity of myofibril preparations (PUMA assay system)
Assay type: biochemical
Parameters: unit not given here
Conditions: detergent treated myofibrils at pCa25%, 500 μM ATP; median value (no †)
Outline: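 Detergent-skinned, homogenized rabbit skeletal myofibrils (~90% fast fibers) were run at the calcium level giving 25% of maximal rate (pCa25%). Incubation used 500 μM ATP and 40 μM compound, with a kinetic UV absorbance read. Data were normalized to control wells; hits raised the rate by >40% at 40 μM.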

Compound	AC1.4 Median
CC[C@H](COP(=O)(O)O)c1nc2nc(O)[nH]c2c(-c2ccc(F)cc2)c1Cl [(2S)-2-[6-chloro-7-(4-fluorophenyl)-2-hydroxyimidazo[4,5-b]pyridinyl]butyl dihydrogen phosphate]	31.644
CC[C@H](COC(=O)[C@@H](N)C(C)C)c1nc2nc(O)[nH]c2c(-c2ccc(F)c(F)c2)c1Cl [(2S)-2-[7-(3,4-difluorophenyl)-6-chloro-2-hydroxyimidazo[4,5-b]pyridinyl]butyl (2S)-2-amino-3-methylbutanoate]	6.640
CC[C@H](CNC(C)=O)c1nc2nc(O)[nH]c2c(-c2ccc(F)cc2)c1Cl [N-{(2R)-2-[6-chloro-7-(4-fluorophenyl)-2-hydroxyimidazo[4,5-b]pyridinyl]butyl}acetamide]	15.6039
CC[C@@H](CNC(C)=O)c1nc2nc(O)[nH]c2c(-c2ccc(F)cc2)c1Cl [N-{(2S)-2-[6-chloro-7-(4-fluorophenyl)-2-hydroxyimidazo[4,5-b]pyridinyl]butyl}acetamide]	8.4925
(tert-butoxy)-N-{4-[6-chloro-1-(ethylpropyl)-2-hydroxyimidazo[4,5-b]pyridin-7-yl]phenyl}-N-methylcarboxamide	42.343
N-{4-[6-chloro-1-(ethylpropyl)-2-hydroxyimidazo[4,5-b]pyridin-7-yl]phenyl}acetamide	28.930
methyl 3-[6-chloro-1-(ethylpropyl)-2-hydroxyimidazo[4,5-b]pyridin-7-yl]benzoate	9.682
{3-[6-chloro-1-(ethylpropyl)-2-hydroxyimidazo[4,5-b]pyridin-7-yl]phenyl}-N,N-dimethylcarboxamide	21.245
{4-[6-chloro-1-(ethylpropyl)-2-hydroxyimidazo[4,5-b]pyridin-7-yl]phenyl}(methylsulfonyl)amine	26.368
